Laboratory results: ChEMBL document CHEMBL5550222, “Synthesis and Biological Evaluation of Novel Psidium Meroterpenoid Derivatives against Cisplatin-Induced Acute Kidney Injury” (J Med Chem, 2024)
Activity calls are given as the source filed them. The rule behind the calls is not given here.

Legend:
NCI-H460 = assay: Cytotoxicity against human NCI-H460 cells; type: functional, cell-based
HK-2 [1] = assay: Reduction in intracellular cisplatin accumulation in human HK-2 cells by ICP-MS analysis; type: functional, cell-based; settings: dose 2.5-10 µM
HK-2 [2] = assay: Upregulation of AKT gene expression in human HK-2 cells by KEGG analysis; type: functional, cell-based
Lewis lung carcinoma [3] = assay: Antitumor activity against cisplatin-induced mouse Lewis lung carcinoma cell line xenografted in po dosed C57BL/6J mouse assessed as reduction in BUN level in serum preadministered with compound for 2 days followed by cisplatin addition on day 3 and measured 72 hrs post cisplatin administration; type: functional, organism-based; settings: dose 25-100 mg/kg, time 5.0 day
Lewis lung carcinoma [4] = assay: Cytotoxicity against mouse Lewis lung carcinoma cell line; type: functional, cell-based
NCI-H1299 = assay: Cytotoxicity against human NCI-H1299 cells; type: functional, cell-based
Cell membrane [5] = assay: Induction of mitochondrial membrane potential loss in human HK-2 cells assessed as increase in sirtuin 3 expression by Western blot analysis; type: cell membranes; settings: dose 2.5-10 µM
Cell membrane [6] = assay: Induction of mitochondrial membrane potential loss in human HK-2 cells at 2.5 to 10 uM by JC-1 staining based laser microscopic analysis; type: cell membranes; settings: dose 2.5-10 µM
HK-2 [7] = assay: Effect on ATP7B mRNA level in human HK-2 cells by transcriptome sequencing analysis; type: functional, cell-based; settings: dose 2.5-10 µM
HK-2 [8] = assay: Protection against cisplatin-induced apoptosis in human HK-2 cells assessed as reduction in BAX expression preincubated with compound for 2 hrs followed by cisplatin induction and measured after 48 hrs by Western blotting analysis; type: functional, cell-based; settings: dose 2.5-10 µM, time 50.0 hrs
HK-2 [9] = assay: Effect on OCT2 mRNA level in human HK-2 cells by transcriptome sequencing analysis; type: functional, cell-based
HK-2 [10] = assay: Upregulation of AMPK gene expression in human HK-2 cells by KEGG analysis; type: functional, cell-based
Mus musculus [11] = assay: Protection against cisplatin-induced nephrotoxicity in C57BL6/J mouse assessed as reduction in infiltration of inflammatory cells at 100 mg/kg, po preadministered with compound for 2 days followed by cisplatin addition on day 3 and measured 72 hrs post cisplatin administration by H and E staining based analysis; type: functional, organism-based; settings: time 5.0 day
HK-2 [12] = assay: Inhibition of cisplatin-induced DNA damage in human HK-2 cells assessed as reduction in cleaved-PARP level at 2.5 to 10 uM by Western blot analysis; type: functional, cell-based; settings: dose 2.5-10 µM
[13] = Antitumor activity against cisplatin-induced mouse Lewis lung carcinoma cell line xenografted C57BL/6J mouse assessed as reduction in tumor mass at 25 to 50 mg/kg, po preadministered with compound for 2 days followed by cisplatin addition on day 3 and measured 72 hrs post cisplatin administration; type: functional; set-up: scale not given: the % may be the effect or the level left; settings: dose 25-50 mg/kg, time 5 day
HK-2 [14] = assay: Inhibition of cisplatin-induced DNA damage in human HK-2 cells assessed as reduction in p-histone-H2AX level at 2.5 to 10 uM by Western blot analysis; type: functional, cell-based; settings: dose 2.5-10 µM
HK-2 [15] = assay: Effect on SLC47A1 mRNA level in human HK-2 cells by transcriptome sequencing analysis; type: functional, cell-based
HK-2 [16] = assay: Upregulation of ATP7B mRNA level in human HK-2 cells at 2.5 to 10 uM by RT-qPCR analysis; type: functional, cell-based; settings: dose 2.5-10 µM
HK-2 [17] = assay: Induction of autophagy in human HK-2 cells assessed as upregulation of ATG5 expression at 2.5 to 10 uM by Western blotting analysis; type: functional, cell-based; settings: dose 2.5-10 µM
HK-2 [18] = assay: Protection against cisplatin-induced apoptosis in human HK-2 cells preincubated with compound for 2 hrs followed by cisplatin induction and measured after 48 hrs by FITC/PI staining based flow cytometry analysis; type: functional, cell-based; settings: dose 2.5-10 µM, time 50.0 hrs
HK-2 [19] = assay: Induction of autophagy in human HK-2 cells assessed as […] at 2.5 to 10 uM by Western blotting analysis; type: functional, cell-based; settings: dose 2.5-10 µM
HK-2 [20] = assay: Protection against cisplatin-induced apoptosis in human HK-2 cells assessed as reduction in cleaved caspase 3 expression preincubated with compound for 2 hrs followed by cisplatin induction and measured after 48 hrs by Western blot analysis; type: functional, cell-based; settings: dose 2.5-10 µM, time 50.0 hrs
Mus musculus [21] = assay: Protection against cisplatin-induced nephrotoxicity in C57BL6/J mouse assessed as reduction in BUN level in kidney at 25 to 100 mg/kg, po preadministered with compound for 2 days followed by cisplatin addition on day 3 and measured 72 hrs post cisplatin administration; type: functional, organism-based; settings: dose 25-100 mg/kg, time 5.0 day
HK-2 [22] = assay: Protection against cisplatin-induced apoptosis in human HK-2 cells assessed as improvement in cell number preincubated with compound for 2 hrs followed by cisplatin induction and measured after 48 hrs by light microscopic analysis; type: functional, cell-based; settings: dose 2.5-10 µM, time 50.0 hrs
HK-2 [23] = assay: Protection against cisplatin-induced apoptosis in human HK-2 cells assessed as improvement in cell morphology preincubated with compound for 2 hrs followed by cisplatin induction and measured after 48 hrs by light microscopic analysis; type: functional, cell-based; settings: dose 2.5-10 µM, time 50.0 hrs
HK-2 [24] = assay: Inhibition of cisplatin-induced DNA damage in human HK-2 cells assessed as […] in comet tail length by comet assay; type: functional, cell-based; settings: dose 2.5-10 µM
HK-2 [25] = assay: Induction of autophagy in human HK-2 cells assessed as upregulation of AMPKalpha expression at 2.5 to 10 uM by Western blotting analysis; type: functional, cell-based; settings: dose 2.5-10 µM
HK-2 [26] = assay: Upregulation of ATP7A mRNA level in human HK-2 cells at 2.5 to 10 uM by RT-qPCR analysis; type: functional, cell-based; settings: dose 2.5-10 µM
HK-2 [27] = assay: Effect on MRP1 mRNA level in human HK-2 cells by transcriptome sequencing analysis; type: functional, cell-based
Lewis lung carcinoma [28] = assay: Antitumor activity against cisplatin-induced mouse Lewis lung carcinoma cell line xenografted C57BL/6J mouse assessed as inflammatory cell infiltration at 25 to 50 mg/kg, po preadministered with compound for 2 days followed by cisplatin addition on day 3 and measured 72 hrs post cisplatin administration by H and E staining based analysis; type: functional, organism-based; settings: dose 25-50 mg/kg, time 5.0 day
HK-2 [29] = assay: Induction of autophagy in human HK-2 cells assessed as upregulation of PI3K class III expression at 2.5 to 10 uM by Western blotting analysis; type: functional, cell-based; settings: dose 2.5-10 µM
Cell membrane [30] = assay: Induction of mitochondrial membrane potential loss in human HK-2 cells assessed as increase in ATP5A1 expression by Western blot analysis; type: cell membranes; settings: dose 2.5-10 µM
HK-2 [31] = assay: Induction of autophagy in human HK-2 cells assessed as upregulation of LC3II expression at 2.5 to 10 uM by Western blotting analysis; type: functional, cell-based; settings: dose 2.5-10 µM
HK-2 [32] = assay: Effect on CTR1 mRNA level in human HK-2 cells by transcriptome sequencing analysis; type: functional, cell-based
Mus musculus [33] = assay: Protection against cisplatin-induced nephrotoxicity in po dosed C57BL6/J mouse assessed as reduction in SCR level in kidney Preadministered with compound for 2 days followed by cisplatin addition on day 3 and measured 72 hrs post cisplatin administration; type: functional, organism-based; settings: dose 25-100 mg/kg, time 5.0 day
HK-2 [34] = assay: Upregulation of ATP7B level in human HK-2 cells at 2.5 to 10 uM by Western blot analysis; type: functional, cell-based; settings: dose 2.5-10 µM
HK-2 [35] = assay: Induction of autophagy in human HK-2 cells assessed as upregulation of beclin1 expression at 2.5 to 10 uM by Western blotting analysis; type: functional, cell-based; settings: dose 2.5-10 µM
HK-2 [36] = assay: Effect on OCT1 mRNA level in human HK-2 cells by transcriptome sequencing analysis; type: functional, cell-based
HK-2 [37] = assay: Upregulation of CTR1 mRNA level in human HK-2 cells at 2.5 to 10 uM by RT-qPCR analysis; type: functional, cell-based; settings: dose 2.5-10 µM
Cell membrane [38] = assay: Induction of mitochondrial membrane potential loss in human HK-2 cells assessed as increase in OPA1 expression by Western blot analysis; type: cell membranes; settings: dose 2.5-10 µM
HK-2 [39] = assay: Upregulation of ATP7A level in human HK-2 cells at 2.5 to 10 uM by Western blot analysis; type: functional, cell-based; settings: dose 2.5-10 µM

In the case of `COc1c(C=O)c(OC)c(C(=O)c2ccccc2)c2c1CC1CC/C(C)=C/CC(C)(C)/C=C/CC1(C)O2` (configuration not stated), the Activity (NCI-H460) is reported as “Active”, the Activity (HK-2 [1]) is reported as “Dose-Dependent Effect” and the Activity (HK-2 [2]) is reported as “Active”. For the same compound, the Activity (Lewis lung carcinoma [3]) was “Active”, the Activity (Lewis lung carcinoma [4]) was “Active” and the Activity (NCI-H1299) was “Active”. For the same compound, the Activity (Cell membrane [5]) was “Active”, the Activity (Cell membrane [6]) was “Active” and the Activity (HK-2 [7]) was “Dose-Dependent Effect”. The Activity (HK-2 [8]) was “Dose-Dependent Effect”, the Activity (HK-2 [9]) was “inactive” and the Activity (HK-2 [10]) was “Active”. The Activity (Mus musculus [11]) was “Active”, the inhibition (HK-2 [12]) was “Active” and the Activity [13] was 31.4%. For the same compound, the inhibition (HK-2 [14]) was “Active”, the Activity (HK-2 [15]) was “inactive” and the Activity (HK-2 [16]) was “Active”. The Activity (HK-2 [17]) was “Active”, the Activity (HK-2 [18]) was “Dose-Dependent Effect” and the Activity (HK-2 [19]) was “Active”. The Activity (HK-2 [20]) was “Dose-Dependent Effect”, the Activity (Mus musculus [21]) was “Active” and the Activity (HK-2 [22]) was “Dose-Dependent Effect”. The Activity (HK-2 [23]) was “Dose-Dependent Effect”, the inhibition (HK-2 [24]) was “Dose-Dependent Effect” and the Activity (HK-2 [25]) was “Active”. The Activity (HK-2 [26]) was “Active”, the Activity (HK-2 [27]) was “inactive” and the Activity (Lewis lung carcinoma [28]) was “Active”. For the same compound, the Activity (HK-2 [29]) was “Active”, the Activity (Cell membrane [30]) was “Active” and the Activity (HK-2 [31]) was “Active”. The Activity (HK-2 [32]) was “inactive”, the Activity (Mus musculus [33]) was “Dose-Dependent Effect” and the Activity (HK-2 [34]) was “Active”. For the same compound, the Activity (HK-2 [35]) was “Active”, the Activity (HK-2 [36]) was “inactive” and the Activity (HK-2 [37]) was “Active”. The Activity (Cell membrane [38]) was “Active” and the Activity (HK-2 [39]) was “Active”.
In the case of `COc1c(CO)c(OC)c(C(=O)c2ccccc2)c2c1C[C@H]1CC/C(C)=C/CC(C)(C)/C=C/C[C@]1(C)O2`, the Activity (NCI-H460) is reported as “Active”, the Activity (HK-2 [1]) is reported as “Dose-Dependent Effect” and the Activity (HK-2 [2]) is reported as “Active”. The Activity (Lewis lung carcinoma [3]) was “Active”, the Activity (Lewis lung carcinoma [4]) was “Active” and the Activity (NCI-H1299) was “Active”. The Activity (Cell membrane [5]) was “Active”, the Activity (Cell membrane [6]) was “Active” and the Activity (HK-2 [7]) was “Dose-Dependent Effect”. The Activity (HK-2 [8]) was “Dose-Dependent Effect”, the Activity (HK-2 [9]) was “inactive” and the Activity (HK-2 [10]) was “Active”. The Activity (Mus musculus [11]) was “Active”, the inhibition (HK-2 [12]) was “Active” and the Activity [13] was 28.1%. For the same compound, the inhibition (HK-2 [14]) was “Active”, the Activity (HK-2 [15]) was “inactive” and the Activity (HK-2 [16]) was “Active”. The Activity (HK-2 [17]) was “Active”, the Activity (HK-2 [18]) was “Dose-Dependent Effect” and the Activity (HK-2 [19]) was “Active”. For the same compound, the Activity (HK-2 [20]) was “Dose-Dependent Effect”, the Activity (Mus musculus [21]) was “Active” and the Activity (HK-2 [22]) was “Dose-Dependent Effect”. The Activity (HK-2 [23]) was “Dose-Dependent Effect”, the inhibition (HK-2 [24]) was “Dose-Dependent Effect” and the Activity (HK-2 [25]) was “Active”. The Activity (HK-2 [26]) was “Active”, the Activity (HK-2 [27]) was “inactive” and the Activity (Lewis lung carcinoma [28]) was “Active”. For the same compound, the Activity (HK-2 [29]) was “Active”, the Activity (Cell membrane [30]) was “Active” and the Activity (HK-2 [31]) was “Active”. For the same compound, the Activity (HK-2 [32]) was “inactive”, the Activity (Mus musculus [33]) was “Dose-Dependent Effect” and the Activity (HK-2 [34]) was “Active”. The Activity (HK-2 [35]) was “Active”, the Activity (HK-2 [36]) was “inactive” and the Activity (HK-2 [37]) was “Active”. For the same compound, the Activity (Cell membrane [38]) was “Active” and the Activity (HK-2 [39]) was “Active”.
